Where two headings read alike, the source gives them in different places.
Assays:
Type in all cases: in vivo
[1] = tested on: Plutella xylostella (Diamond Back Moth); assay: Activity against Plutella xylostella (diamond back moth), artificial diet; conditions: 192 h, read-out: effect in at least one of the two categories (mortality or growth inhibition); for percent effect (mortality or growth inhibition) at 200 ppm: application rate 200 ppm, eggs, 8 days after infestation
Method: Example B3: Activity Against Plutella xylostella (Diamond Back Moth)
24-well microtiter plates with artificial diet were treated with aqueous test solutions prepared from 10,000 ppm DMSO stock solutions by pipetting. After drying, Plutella eggs were pipetted through a plastic stencil onto a gel blotting paper and the plate was closed with it. The samples were assessed for mortality and growth inhibition in comparison to untreated samples 8 days after infestation.

[2] = tested on: Myzus persicae (Green Peach Aphid); assay: Activity against Myzus persicae (green peach aphid), feeding/contact activity; conditions: 144 h
Method: Example B4: Activity Against Myzus persicae (Green Peach Aphid) Feeding/Contact Activity
Sunflower leaf discs were placed onto agar in a 24-well microtiter plate and sprayed with aqueous test solutions prepared from 10,000 ppm DMSO stock solutions. After drying, the leaf discs were infested with an aphid population of mixed ages. The samples were assessed for mortality 6 days after infestation.

[3] = tested on: Diabrotica balteata (Corn Root Worm); assay: Activity against Diabrotica balteata (corn root worm), maize sprouts sprayed; conditions: 96 h, read-out: effect in at least one of the two categories (mortality or growth inhibition); for percent effect (mortality or growth inhibition) at 200 ppm: application rate 200 ppm, L2 larvae, 4 days after infestation
Method: Example B1: Activity Against Diabrotica balteata (Corn Root Worm)
Maize sprouts placed onto an agar layer in 24-well microtiter plates were treated with aqueous test solutions prepared from 10,000 ppm DMSO stock solutions by spraying. After drying, the plates were infested with L2 larvae (6 to 10 per well). The samples were assessed for mortality and growth inhibition in comparison to untreated samples 4 days after infestation.

[4] = tested on: Euschistus heros (Neotropical Brown Stink Bug); assay: Activity against Euschistus heros (neotropical brown stink bug), soybean leaves sprayed; conditions: 120 h, application rate 200 ppm, N2 nymphs, 5 days after infestation, read-out: effect in at least one of the two categories (mortality or growth inhibition)
Method: Example B2: Activity Against Euschistus heros (Neotropical Brown Stink Bug)
Soybean leaves on agar in 24-well microtiter plates were sprayed with aqueous test solutions prepared from 10,000 ppm DMSO stock solutions. After drying the leaves were infested with N2 nymphs. The samples were assessed for mortality and growth inhibition in comparison to untreated samples 5 days after infestation.

[5] = tested on: Spodoptera littoralis (Egyptian Cotton Leaf Worm); assay: Activity against Spodoptera littoralis (Egyptian cotton leaf worm), cotton leaf discs; conditions: foliar, 72 h, read-out: control (mortality, anti-feedant effect or growth inhibition)
Method: Example B5: Activity Against Spodoptera littoralis (Egyptian Cotton Leaf Worm)
Cotton leaf discs were placed onto agar in 24-well microtiter plates and sprayed with aqueous test solutions prepared from 10,000 ppm DMSO stock solutions. After drying the leaf discs were infested with five L1 larvae. The samples were assessed for mortality, anti-feeding effect, and growth inhibition in comparison to untreated samples 3 days after infestation. Control of Spodoptera littoralis by a test sample is given when at least one of the categories mortality, anti-feedant effect, and growth inhibition is higher than the untreated sample.

[6] = application rate 200 ppm, feeding/contact, mixed ages, 6 days after infestation, read-out: mortality
[7] = application rate 200 ppm, L1 larvae, 3 days after infestation

CCS(=O)(=O)c1cc(C2CC2)cnc1-c1ncc2c(OCC(F)(F)C(F)(F)F)cccn12 [Compound P40, 3-(5-cyclopropyl-3-ethylsulfonyl-2-pyridyl)-8-(2,2,3,3,3-penta-fluoropropoxy)imidazo [1,5-a]pyridine]
≥ 80%: percent effect (mortality or growth inhibition) at 200 ppm [1] | mortality at 200 ppm [2, 6] | percent effect (mortality or growth inhibition) at 200 ppm [3]

CCS(=O)(=O)c1cc(N=S(C)(C)=O)cnc1-c1ncc2c(OCC(F)(F)C(F)(F)F)cccn12 [Compound P45, [5-ethylsulfonyl-6-[8-(2,2,3,3,3-penta-fluoropropoxy)imidazo [1,5-a]pyridin-3-yl]-3-pyridyl]imino-dimethyl-oxo-λ^6-sulfane]
≥ 80%: percent effect (mortality or growth inhibition) at 200 ppm [1] | percent effect (mortality or growth inhibition) at 200 ppm [4] | mortality at 200 ppm [2, 6]

CCSc1cc(OC(C)(C)C#N)cnc1-c1ncc2c(OCC(F)(F)C(F)(F)F)nccn12 [Compound P50, 2-[[5-ethylsulfanyl-6-[8-(2,2,3,3,3-penta-fluoropropoxy)imidazo [1,5-a]pyrazin-3-yl]-3-pyridyl]oxy]-2-methyl-propanenitrile]
≥ 80%: percent control (mortality, anti-feedant effect or growth inhibition) at 200 ppm [5, 7] | percent effect (mortality or growth inhibition) at 200 ppm [1] | percent effect (mortality or growth inhibition) at 200 ppm [4] | percent effect (mortality or growth inhibition) at 200 ppm [3]

CCS(=O)(=O)c1cc(C2(C#N)CC2)cnc1-c1ncc2c(OCC(F)(F)C(F)(F)F)cccn12 [Compound P35, 1-[5-ethylsulfonyl-6-[8-(2,2,3,3,3-penta-fluoropropoxy)imidazo [1,5-a]pyridin-3-yl]-3-pyridyl]cyclopropane-carbonitrile]
≥ 80%: percent control (mortality, anti-feedant effect or growth inhibition) at 200 ppm [5, 7] | percent effect (mortality or growth inhibition) at 200 ppm [1] | percent effect (mortality or growth inhibition) at 200 ppm [4] | percent effect (mortality or growth inhibition) at 200 ppm [3]

CCS(=O)(=O)c1cc(Oc2ccccn2)cnc1-c1ncc2c(OCC(F)(F)C(F)(F)F)cccn12 [Compound P36, 3-[3-ethylsulfonyl-5-(2-pyridyloxy)-2-pyridyl]-8-(2,2,3,3,3-penta-fluoropropoxy)imidazo [1,5-a]pyridine]
≥ 80%: percent effect (mortality or growth inhibition) at 200 ppm [1] | percent effect (mortality or growth inhibition) at 200 ppm [4] | mortality at 200 ppm [2, 6] | percent effect (mortality or growth inhibition) at 200 ppm [3]

CCSc1cccnc1-c1ncc2c(OCC(F)(F)C(F)F)nccn12 [Compound P5]
≥ 80%: percent control (mortality, anti-feedant effect or growth inhibition) at 200 ppm [5] | percent control (mortality or growth inhibition) at 200 ppm [1] | mortality at 200 ppm [2] | percent control (mortality or growth inhibition) at 200 ppm [3]

CCS(=O)(=O)c1cc(N(C)C(C)=O)cnc1-c1ncc2c(OCC(F)(F)C(F)(F)F)cccn12 [Compound P39, N-[5-ethylsulfonyl-6-[8-(2,2,3,3,3-penta-fluoropropoxy)imidazo [1,5-a]pyridin-3-yl]-3-pyridyl]-N-methyl-acetamide]
≥ 80%: percent effect (mortality or growth inhibition) at 200 ppm [1] | percent effect (mortality or growth inhibition) at 200 ppm [4] | mortality at 200 ppm [2, 6]

CCS(=O)(=O)c1cc(C(C)(C)C#N)cnc1-c1ncc2c(OCC(F)(F)C(F)(F)F)nccn12 [Compound P16, 2-[5-ethylsulfonyl-6-[8-(2,2,3,3,3-penta-fluoropropoxy)imidazo [1,5-a]pyrazin-3-yl]-3-pyridyl]-2-methyl-propanenitrile]
≥ 80%: percent control (mortality, anti-feedant effect or growth inhibition) at 200 ppm [5, 7] | percent effect (mortality or growth inhibition) at 200 ppm [1] | mortality at 200 ppm [2, 6] | percent effect (mortality or growth inhibition) at 200 ppm [3]

CCS(=O)(=O)c1ccc(NC)nc1-c1ncc2c(OCC(F)(F)C(F)(F)F)cccn12 [Compound P31, 5-ethylsulfonyl-N-methyl-6-[8-(2,2,3,3,3-penta-fluoropropoxy)imidazo [1,5-a]pyridin-3-yl]pyri-din-2-amine]
≥ 80%: percent control (mortality, anti-feedant effect or growth inhibition) at 200 ppm [5, 7] | percent effect (mortality or growth inhibition) at 200 ppm [1] | mortality at 200 ppm [2, 6] | percent effect (mortality or growth inhibition) at 200 ppm [3]

CCS(=O)(=O)c1ccc(-n2cncn2)nc1-c1ncc2c(OCC(F)(F)C(F)(F)F)cccn12 [Compound P33, 3-[3-ethylsulfonyl-6-(1,2,4-triazol-1-yl)-2-pyridyl]-8-(2,2,3,3,3-pentafluoropropoxy)imi dazo[1,5-a]pyri-dine]
≥ 80%: percent control (mortality, anti-feedant effect or growth inhibition) at 200 ppm [5] | percent control (mortality or growth inhibition) at 200 ppm [1] | percent control (mortality or growth inhibition) at 200 ppm [3]

CCS(=O)(=O)c1cc(OC(C)(C)C#N)cnc1-c1ncc2c(OCC(F)(F)C(F)(F)F)cccn12 [Compound P47, 2-[[5-ethylsulfonyl-6-[8-(2,2,3,3,3-penta-fluoropropoxy)imidazo [1,5-a]pyridin-3-yl]-3-pyridyl]oxy]-2-methyl-propanenitrile]
≥ 80%: percent effect (mortality or growth inhibition) at 200 ppm [1] | percent effect (mortality or growth inhibition) at 200 ppm [4] | mortality at 200 ppm [2, 6] | percent effect (mortality or growth inhibition) at 200 ppm [3]

CCS(=O)(=O)c1ccc(N(C)C(C)=O)nc1-c1ncc2c(OCC(F)(F)C(F)(F)F)cccn12 [Compound P37, N-[5-ethylsulfonyl-6-[8-(2,2,3,3,3-penta-fluoropropoxy)imidazo [1,5-a]pyridin-3-yl]-2-pyridyl]-N-methyl-acetamide]
≥ 80%: percent effect (mortality or growth inhibition) at 200 ppm [1] | mortality at 200 ppm [2, 6] | percent effect (mortality or growth inhibition) at 200 ppm [3]

CCSc1cccnc1-c1ncc2c(OCC(F)(F)C(F)(F)F)nccn12 [Compound P7, 3-(3-ethylsulfanyl-2-pyridyl)-8-(2,2,3,3,3-pentafluoropropoxy)imi-dazo[1,5-a]pyrazine]
≥ 80%: percent control (mortality or growth inhibition) at 200 ppm [1] | mortality at 200 ppm [2] | percent control (mortality or growth inhibition) at 200 ppm [3]

CCS(=O)(=O)c1cc(Br)cnc1-c1ncc2c(OCC(F)(F)C(F)(F)F)nccn12 [Compound P4, 3-(5-bromo-3-ethylsulfonyl-2-pyridyl)-8-(2,2,3,3,3-pentafluoropropoxy)imi-dazo[1,5-a]pyrazine]
≥ 80%: percent control (mortality, anti-feedant effect or growth inhibition) at 200 ppm [5] | percent control (mortality or growth inhibition) at 200 ppm [1] | mortality at 200 ppm [2] | percent control (mortality or growth inhibition) at 200 ppm [3]

CCS(=O)(=O)c1ccc(N(C)C(=O)C2CC2)nc1-c1ncc2c(OCC(F)(F)C(F)(F)F)cccn12 [Compound P38, N-[5-ethylsulfonyl-6-[8-(2,2,3,3,3-penta-fluoropropoxy)imidazo [1,5-a]pyridin-3-yl]-2-pyridyl]-N-methyl-cyclopropanecarboxamide]
≥ 80%: percent control (mortality, anti-feedant effect or growth inhibition) at 200 ppm [5, 7] | percent effect (mortality or growth inhibition) at 200 ppm [1] | percent effect (mortality or growth inhibition) at 200 ppm [3]

CCS(=O)(=O)c1ccc(N(C)C(=O)NC)nc1-c1ncc2c(OCC(F)(F)C(F)(F)F)nccn12 [Compound P14, 1-[5-ethylsulfonyl-6-[8-(2,2,3,3,3-penta-fluoropropoxy)imidazo [1,5-a]pyrazin-3-yl]-2-pyridyl]-1,3-dimethyl-urea]
≥ 80%: percent control (mortality, anti-feedant effect or growth inhibition) at 200 ppm [5, 7] | percent effect (mortality or growth inhibition) at 200 ppm [1] | mortality at 200 ppm [2, 6] | percent effect (mortality or growth inhibition) at 200 ppm [3]

CCS(=O)(=O)c1cccnc1-c1ncc2c(OCC(F)(F)C(F)F)nccn12 [Compound P6, 3-(3-ethylsulfonyl-2-pyridyl)-8-(2,2,3,3-tetrafluoropropoxy)imi-dazo[1,5-a]pyrazine]
≥ 80%: percent control (mortality, anti-feedant effect or growth inhibition) at 200 ppm [5] | percent control (mortality or growth inhibition) at 200 ppm [1] | mortality at 200 ppm [2] | percent control (mortality or growth inhibition) at 200 ppm [3]
